The target of assay [1] is T1, TDC (tryptophan decarboxylase) (Catharanthus roseus, UniProt P17770).
T1 construct: expressed in E. coli BL21(DE3) delta-tnaA from pCOLAJ23-TDC; gene from pCOLADuet-GSTdelta37T5H + TDC
The experiment in a line: whole-cell bioconversion, HPLC of serotonin. The assay is classed as cell-based. The note with it: E. coli BL21(DE3) delta-tnaA expressing TDC; pH 6.7, 30 °C.

The target in assay [2] is T2, CtAAAH-F (aromatic amino acid hydroxylase W192F) (Cupriavidus taiwanensis, UniProt B3R7Q6, W192F/F197L).
T2 construct: gene phhA; engineered W192F parent, expressed in E. coli from pACYCDuet-1 derivatives; tag and purification not described here
The experiment in a line: tryptophan hydroxylation assay, Lineweaver-Burk plot. The assay is classed as biochemical. Conditions: made in the CtAAAH-F (W192F) background; assay conditions only by citation. An excerpt:
(§1) tryptophan hydroxylation assay, Lineweaver-Burk plot on CtAAAH-F (aromatic amino acid hydroxylase W192F)

In assay [3] the target is T3, CtAAAH-F (aromatic amino acid hydroxylase W192F) (Cupriavidus taiwanensis, UniProt B3R7Q6, W192F/F197L/E219C).
T3 construct: gene phhA; engineered W192F parent, expressed in E. coli from pACYCDuet-1 derivatives; tag and purification not described here
Described as above. The note with it: made in the CtAAAH-F (W192F) background; assay conditions only by citation. The format is biochemical.
Excerpt: as §1

Assay [4] addresses T4, CtAAAH-F (aromatic amino acid hydroxylase W192F) (Cupriavidus taiwanensis, UniProt B3R7Q6, W192F/F197I).
T4 construct: gene phhA; engineered W192F parent, expressed in E. coli from pACYCDuet-1 derivatives; tag and purification not described here
The description is as above. The note with it: made in the CtAAAH-F (W192F) background; assay conditions only by citation. The format is biochemical.
Excerpt: as §1

The target in assay [5] is T5, CtAAAH-F (aromatic amino acid hydroxylase W192F) (Cupriavidus taiwanensis, UniProt B3R7Q6, W192F).
T5 construct: gene phhA; engineered W192F parent, expressed in E. coli from pACYCDuet-1 derivatives; tag and purification not described here
Described as above. The format is biochemical. The note with it: parent CtAAAH-F (W192F); assay conditions only by citation.
Excerpt: as §1

In assay [6] the target is T6, CtAAAH-F (aromatic amino acid hydroxylase W192F) (Cupriavidus taiwanensis, UniProt B3R7Q6, W192F/E219C).
T6 construct: gene phhA; engineered W192F parent, expressed in E. coli from pACYCDuet-1 derivatives; tag and purification not described here
The assay is described as above. The format is biochemical. Conditions: made in the CtAAAH-F (W192F) background; assay conditions only by citation.
Excerpt: as §1

By Km is commonly meant the concentration of substrate that gives half-maximal velocity.

T4 sequence (B3R7Q6 entry or part of it W192F/F197I): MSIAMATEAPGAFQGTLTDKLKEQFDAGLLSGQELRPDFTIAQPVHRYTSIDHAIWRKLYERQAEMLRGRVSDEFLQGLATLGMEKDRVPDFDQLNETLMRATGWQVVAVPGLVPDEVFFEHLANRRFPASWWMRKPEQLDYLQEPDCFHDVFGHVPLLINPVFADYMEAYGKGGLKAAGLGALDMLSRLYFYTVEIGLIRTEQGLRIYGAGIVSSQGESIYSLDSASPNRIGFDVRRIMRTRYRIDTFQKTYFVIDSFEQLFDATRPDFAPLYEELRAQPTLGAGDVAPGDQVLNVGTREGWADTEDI
T3 sequence (B3R7Q6 entry or part of it W192F/F197L/E219C): as the sequence (B3R7Q6 entry or part of it W192F/F197I) above, with I197L, E219C counted along it
T6 sequence (B3R7Q6 entry or part of it W192F/E219C): as the sequence (B3R7Q6 entry or part of it W192F/F197I) above, with I197F, E219C counted along it
T1 sequence (P17770 whole entry): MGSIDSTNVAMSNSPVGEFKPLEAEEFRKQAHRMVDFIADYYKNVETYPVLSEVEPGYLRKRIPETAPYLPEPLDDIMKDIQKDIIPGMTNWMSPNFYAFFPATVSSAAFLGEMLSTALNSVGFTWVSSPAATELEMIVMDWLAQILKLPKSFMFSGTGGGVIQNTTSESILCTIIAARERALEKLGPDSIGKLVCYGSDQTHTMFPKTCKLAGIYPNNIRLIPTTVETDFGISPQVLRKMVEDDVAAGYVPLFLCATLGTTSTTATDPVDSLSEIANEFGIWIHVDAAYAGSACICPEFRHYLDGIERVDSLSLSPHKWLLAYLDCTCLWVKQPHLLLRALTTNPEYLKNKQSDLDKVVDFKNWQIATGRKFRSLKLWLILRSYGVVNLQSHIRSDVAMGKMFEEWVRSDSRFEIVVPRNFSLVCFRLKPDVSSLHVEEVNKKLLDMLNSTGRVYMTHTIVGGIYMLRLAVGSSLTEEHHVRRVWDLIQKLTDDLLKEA
T5 sequence (B3R7Q6 entry or part of it W192F): as the sequence (B3R7Q6 entry or part of it W192F/F197I) above, with I197F counted along it
T2 sequence (B3R7Q6 entry or part of it W192F/F197L): as the sequence (B3R7Q6 entry or part of it W192F/F197I) above, with I197L counted along it

For the molecule `N[C@@H](Cc1c[nH]c2ccc(O)cc12)C(=O)O` [5HTP], the “whole-cell bioconversion, HPLC of serotonin” value in assay [1] was “The consumption of 5HTP and serotonin production had a strong correlation”.
For `N[C@@H](Cc1c[nH]c2ccccc12)C(=O)O` [tryptophan], the Km in assay [2] is 1600 µM; in assay [3], 950 µM; in assay [4], 2100 µM; in assay [5] it was 3000 µM; in assay [6], 1800 µM.

These data come from PMC5856393, “Synthetic pathways and processes for effective production of 5-hydroxytryptophan and serotonin from glucose in Escherichia coli” (Journal of Biological Engineering, 2018).
